Consider three molecules from patent US20140120106A1, “Stimulation of Arterial Collateral Growth and Lymphogenesis” (YALE UNIVERSITY, priority 2011, published 2014).

Test [1] concerns HUVEC. The test is described as follows: qPCR of lymphatic fate genes in RAF1-transduced HUVEC treated with pathway inhibitors for 24 hours. The test is classed as cell-based, Human. Conditions: HUVEC with GFP or RAF1S259A adenovirus, Rapamycin 10 nM, AKT inhibitor VIII 1 μM. How it is done: ERK activation was quantified by densitometry and is represented as ratio of pERK1/2 versus total ERK1/2. Immunofluorescence staining showing higher P-ERK1/2 in β-GAL positive endothelial cells of E12.5 S259A embryos. jv, jugular vein. FIGS. 10B-10E are graphs showing HUVEC transduced with control, wild type Raf1 or RAF1S259A lentiviruses treated with DMSO, MEK inhibitor U0126 (10 μM) or PI3K inhibitor LY294002 (10 μM) for 24 hours. Sox18 (FIG. 10B), Prox1 (Figure), Vegfr3 (FIG. 10D) and Lyve1 (10E) expression was assessed by qPCR. FIGS. 10E-10H are graphs showing HUVEC transduced with GFP or RAF1S259A adenoviruses treated with DMSO, Rapamycin (10 nM), AKT inhibitor VIII (1 μM) and LY294002 (10 μM) for 24 hours. Sox18 (FIG. 10F), Prox1 (FIG. 10G) and Coup-TFII (FIG. 10H) expression assessed by qPCR. Data are Mean±SEM (n=3).*, p<0.05; **, p<0.01.
(§1) Total RNA was purified using a QiagenRNeasyPlus Mini kit. cDNA was synthesized using a Bio-Rad iScript cDNA Synthesisis kit. qPCR was performed using a Bio-Rad iQ SYBR Green Supermix on a Bio-Rad CFX96 Real Time System. For immunoblot, cells were lysed in RIPA buffer supplemented with protease and phosphatase inhibitors. Cell lysates were then separated with 4-20% gradient gel (Bio-Rad) and subjected to immunoblot.

Test [2] concerns HUVEC. The test can be described thus: Apoptosis assay (serum withdrawal, Annexin V/PI flow cytometry). It is filed as cell-based, Human. Conditions: serum-starved 48 hours, vehicle, versus empty control lentivirus.
Another test concerns ERK. The test can be described thus: ERK activation by western blot in HUVEC infected with RAF1 WT or RAF1 S259A lentivirus. The test is classed as cell-based, Human.
The next test concerns Akt1-/- cells. The test is described as follows: Dll4 expression in AKT+/+ and AKT-/- cells expressing RAF1 constructs. It is filed as cell-based. From the text: FIGS. 3A to 3M show expression of Dll4 (FIG. 3A), Hey 1 (FIG. 3B), Hey 2 (FIG. 3C), Hes 1 (FIG. 3D), Coup-TFII (FIG. 3E), EphB4 (FIG. 3F), Dll1 (FIG. 3G), Ephrin B2 (FIG. 3G), Notch 1 (FIG. 3I), Notch 4 (FIG. 3J), Jagged 1 (FIG. 3K), FLK1 (FIG. 3L), Nrp1 (3N) and Flt4 (3N).

The subject of test [3] is HUVEC. The test is described as follows: Matrigel tube formation assay. Conditions: overexpression in HUVEC, 8 hours. It is filed as cell-based, Human.
Test [4] deals with HUVEC. The test can be described thus: Migration (wound healing) assay. The test is classed as cell-based, Human. Conditions: under stimulation of serum, 18 hours.
For test [5], the system named is HDLEC. The test is described as follows: qPCR of lymphatic fate genes in adenovirus-transduced HDLEC. The test is classed as cell-based, Human.
The test system of test [6] is HUVEC. The test is described as follows: qPCR of lymphatic fate genes in virus-transduced HUVEC. The test is classed as cell-based, Human.
Test [7] concerns VE-cadherin-tTA/RAF1S259A double transgenic embryos. The test can be described thus: Endothelial-specific RAF1S259A transgenic mice (Noonan syndrome mouse model). It is filed as in vivo. The settings on record: primary EC purified from E12.5 S259A embryos versus control littermates. An excerpt:
Human wild type Raf1 and RAF1S259A plasmids were gifts of Dr. Guri Tzivion (Wayne State University). To generate RAF1S259A transgenic mice, hRAF1S259A was cloned to NotI+PstI sites of pBI-G Tet-off vector (Clontech). TRE-RAF1S259A transgenic mouse line was then generated at the Yale Animal Genomics Services center. VE-cadherin-tT A mice (Sun, et al. Proc Natl Acad Sci USA 102:128-133 (2005)) were from W. Sessa lab (Yale). Time-mating was setup by intercross of male TRE-RAF1 S259A mice with VE-cadherin-tTA female mice. For paraffin and frozen sections, embryos were fixed in 4% paraformaldehyde for overnight at 4° C.
Primary mouse endothelial cells were isolated from E12.5 embryos using a protocol similar to that described by Ren, et al. J Clin Invest 120:1217-1228 (2010). Briefly, E12.5 embryos were harvested, minced finely with scissors, and then digested in 25 ml collagenase 0.2% (w/v) at 37° C. for 20 minutes. The crude cell preparation was pelleted and resuspended in DPBS. The cell suspension was incubated with CD31-coated beads (Invitrogen) at room temperature for 10 minutes with rotation. Using a magnetic separator, the bead-bound cells were recovered, washed with DMEM-20% FBS. The cells were then used for gene expression analysis by qPCR.

The next test relates to HUAEC. The test can be described thus: qPCR of Prox1 in lentivirus-transduced HUAEC. It is filed as cell-based, Human. The settings on record: HUAEC transduced with lentivirus.
Text: Raf1 lentiviruses were produced in 293A cells (Invitrogen) by co-transfection of pLVX-HA-Raf1 WT or S259A with lentiviral packaging plasmids pMD2.G, pRSV-REV and pMDLg/pRRE (Addgene) as described by Dull, J Virol 72:8463-8471 (1998). Control lentivirus was also made using an empty vector pLVX-IRES-puro. Ad-MEK1 CA was from Cell Biolabs, Inc. Ad-Mek1 DN was purchased from Vector Biolabs. All adenoviruses were produced, amplified and purified as described by Dull 1998; Luo, et al. Nat Protoc 2:1236-1247 (2007). For lentiviral infection, cells were incubated with lentivirus in growth medium in the presence of 8 μg/ml polybrene (Sigma) for 8 hours. For adenoviral infection, cells were incubated with adenovirus (MOI=100) in growth medium for overnight.
as §1

Test [8] relates to HUVEC. The test is described as follows: Western blot of DLL4, cleaved NOTCH1 and ERK in RAF1 virus infected HUVEC. The test is classed as cell-based, Human.
Test [9] relates to HUVEC. The test can be described thus: Proliferation assay (cell counting). It is filed as cell-based, Human. Conditions: overexpression in HUVEC.
Test [10] has as its system HUVEC. The test is described as follows: qPCR of artery-vein specification genes in lentivirus infected HUVEC. It is filed as cell-based, Human.
The test system of the next test is 14-3-3. The test is described as follows: Immunoprecipitation of HA-RAF1 from HUVEC, western blot for 14-3-3. It is filed as binding, Human. Conditions: anti-HA immunoprecipitation.
For test [11], the system named is HDLEC. The test is described as follows: Sox18 expression in serum starved HDLEC stimulated with VEGF-C. The test is classed as cell-based, Human. The settings on record: 100 ng/ml VEGF-C. The protocol: FIGS. 11A-11J are graphs showing excessive ERK activation is the basis of lymphatic abnormalities in Noonan syndrome. HUVEC (FIGS. 11A-11D) and HDLEC (FIGS. 11E-11H) were transduced with adenovirus expressing lacZ, cytosolic localized constitutive active ERK (ME) or nuclear localized constitutive active ERK (LA). Sox18 (FIGS. 11A and 11E), Prox1 (FIGS. 11B and 11F), Vegfr3 (FIGS. 11C and 11G) and Lyve1 (FIGS. 11D and 11H) expression were assessed by qPCR. Data are Mean±SEM (n=3). FIG. 11I is a graph of serum starved HDLEC stimulated with 100 ng/ml VEGF-C for an indicated time in the presence of […] (10 μM) or an equal volume of DMSO. Sox18 expression was assessed by qPCR. Data are Mean±SEM (n=3). FIG. 11J is a graph of lymphatic vessel diameter calculated by whole mount staining of skin vasculature of E14.5 embryos treated with MEK inhibitor U0126 or DMSO. Statistical significance was determined by two-tailed t-test (Control, n=5 embryos; S259A, n=3 embryos).
as §1

Where [12] appears, read: serum-starved HUVEC, 50 ng/ml VEGF-A164.
[13] abbreviates: HDLEC transduced with the named construct.
Setting [14] is: HUVEC transduced with the named construct.
[15] abbreviates: adenovirus MOI 0, 5, 10, 50 for 48 hours, HUVEC.
Setting [16] is: lentivirus infected HUVEC, qPCR.

As for `O=c1[nH]c2ccccc2n1C1CCN(Cc2ccc(-c3nc4cc5[nH]cnc5cc4nc3-c3ccccc3)cc2)CC1` [AKT inhibitor VIII], in the test on HUVEC [1], the Coup-TFII expression result is “significantly inhibited”, the Prox1 expression result is “significantly inhibited” and the Sox18 expression result is “slightly inducing”.
On to “RAF1 S259A: RAF1 Ser259 to Ala259 mutant, not inhibited by AKT; expressed from lentivirus, adenovirus or endothelial transgene”, for which the cell survival result with HUVEC [2] is “significantly higher survival”. Further, in the test with ERK (overexpression in HUVEC by lentivirus), the ERK activation result is recorded as “constitutive activation”. Further, in the test with ERK (setting [12]), the Akt signaling result is recorded as “remains normal” and the Erk activation entry was “constitutive activation”. In addition, the DLL4 expression result with Akt1-/- cells was “strongly induced”. In the test with HUVEC [3], the “tube formation (tube length)” value was “significantly improved”. In addition, the cell migration result in the test with HUVEC [4] is given as “significantly promoted”. The Prox1 expression entry in the test on HDLEC [5] (HDLEC transduced with adenovirus) is “not”. In addition, in the test on HDLEC [5] (setting [13]), the Lyve1 expression result is “Increased expression”, the Sox17 expression result is “significant increase”, the Sox18 expression result is “significant increase” and the Vegfr3 expression result is listed as “Increased expression”. Further, the Sox7 expression result in the test with HUVEC [6] (HUVEC transduced with lentivirus) is on record as “unchanged”. In the test on HUVEC [6] (setting [14]), the Lyve1 expression result is reported as “Increased expression”, the Prox1 expression entry was “upregulated”, the Sox17 expression entry is “significant increase” and the Sox18 expression result was “significant increase”. The Vegfr3 expression entry with HUVEC [6] (setting [14]) is recorded as “Increased expression”. In addition, the Coup-TFII levels entry in the test with HUVEC [6] (in vitro or in vivo) is “no significant effect”. In addition, the Sox18 levels result in test [7] is recorded as “significantly higher”. Moreover, the Prox1 expression entry in the test on HUAEC is recorded as “upregulated”. For the same molecule, the “NOTCH1 activation (cleaved NOTCH1)” value in the test on HUVEC [8] (HUVEC) is “activated”. In the test with HUVEC [8] (setting [15]), the DLL4 protein result is “dose-dependent and parallel increase”; the ERK activity entry is “dose-dependent and parallel increase”. The Dll4 protein result in the test on HUVEC [8] (lentivirus overexpression in HUVEC) is on record as “dramatically increased”. Also, the cell proliferation result in the test on HUVEC [9] is “significantly inhibited”. Also, in the test on HUVEC [10] (Raf1SA introduction), the Egr1 expression entry is recorded as “activated expression”, the Ets1 expression result is given as “activated expression”, the “Sox7 expression” value is reported as “not changed” and the Sox18 expression entry is “activated expression”. Moreover, in the test with HUVEC [10] (setting [16]), the “Coup-TFII (venous marker) gene expression” value is “no changes”, the Dll1 gene expression result was “not affected”, the Dll4 gene expression result was “dramatically induced” and the “EphB4 (venous fate gene) expression” value is “no changes”. In the test with HUVEC [10] (setting [16]), the “Ephrin B2 gene expression” value is “dramatically induced”, the Flk1 gene expression entry is “induced”, the Flt4 gene expression result was “induced” and the Hes1 gene expression entry is “dramatically induced”. Besides, in the test on HUVEC [10] (setting [16]), the Hey1 gene expression entry is given as “dramatically induced”, the Hey2 gene expression result is “dramatically induced”, the Jagged1 gene expression entry is recorded as “dramatically induced” and the Notch4 gene expression result is on record as “dramatically induced”. In addition, the “neuropilin1 (Nrp1) gene expression” value in the test with HUVEC [10] (setting [16]) is reported as “dramatically induced”. Moreover, the “Coup-TFII (venous marker) gene expression” value in the test on HUVEC [10] (lentivirus infected HUVEC, qPCR, listed as RAF1S259A) was “slightly inhibiting”. Also, the “co-immunoprecipitation with 14-3-3” value in the test with 14-3-3 is listed as “did not”.

B1: VEGF-C: growth factor from R&D, the key VEGF in lymphatic EC (protein, UniProt P49767 112-227, looked up)
Vascular endothelial growth …: AHYNTEILKSIDNEWRKTQCMPREVCIDVGKEFGVATNTFFKPPCVSVYRCGGCCNSEGLQCMNTSTSYLSKTLFEITVPLSQGPKPVTISFANHTSCRCMSKLDVYRQVHSIIRR
Turning to B1, the Sox18 expression result in the test with HDLEC [11] was “induced”.
